Results on 14 compounds are retold here after ChEMBL document CHEMBL1201862, “PubChem BioAssay data set” (2004).

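Where inhibition never reached the appropriate level, the endpoint shown equals the highest concentration tested. Otherwise, values were interpolated linearly from a five-concentration, 48-hour dose response in 96-well plates. GI50 is the concentration that inhibits growth by half.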 Active and inactive are the calls of the source. No stated cut-off is given here; in the data, active = GI50 up to about 1.1 µM and inactive = higher.

Holding throughout (test): growth of human tumour cells (NCI), 48 h
Assay [1] has as its system HCC 2998.
The test system of assay [2] is HCT-116.
Assay [3] has as its system HL-60.
Assay [4] deals with IGROV-1.
Assay [5] has as its system KM12.
The test system of assay [6] is MOLT-4.
In assay [7] the test system is NCI-H23.
For assay [8], the system named is NCI-H522.
The subject of assay [9] is OVCAR-3.
The test system of assay [10] is RXF 393.
The test system of assay [11] is SK-OV-3.
In assay [12] the test system is SNB-75.
Assay [13] relates to U-251.
Assay [14] deals with UACC-257.
Assay [15] relates to HCT-15.
Assay [16] deals with OVCAR-4.
The test system of assay [17] is SK-MEL-5.

`Cc1ccc2c(c1)-c1c3c(nn1C)-c1ccccc1SC3O2` (stereo unspecified): the GI50 in [1] was 34 µM (inactive); in [2] it was 33.7 µM (inactive); in [3], 24.5 µM (inactive); in assay [4] it was > 100 µM (inactive); in assay [5], 38.6 µM (inactive); in [6], 26.1 µM (inactive). The GI50 in assay [7] was > 100 µM (inactive); in [8] it was 78.7 µM (inactive); in assay [9], 85.9 µM (inactive); in assay [10], > 100 µM (inactive); in assay [11], > 100 µM (inactive); in assay [12] it was 55.8 µM (inactive). Further, the GI50 in assay [13] is > 100 µM (inactive); in assay [14], 50.6 µM (inactive).

As for `[O-][S+](Cc1ccccc1)c1nc2ccccc2nc1-c1cccs1` (stereo unspecified), the GI50 is 12.4 µM (inactive) in [1]; 10.4 µM (inactive) in assay [2]; 9.29 µM in [15]; 3.49 µM (inactive) in assay [3]; 14.6 µM (inactive) in [4]; 16 µM (inactive) in assay [5]. Moreover, the GI50 is 3.53 µM (inactive) in assay [6]; 13.8 µM (inactive) in assay [7]; 1.21 µM (inactive) in assay [8]; 11.2 µM (inactive) in [9]; 5.78 µM (inactive) in [16]; 11.4 µM (inactive) in assay [17]. Besides, the GI50 is 29 µM (inactive) in [11], 17.6 µM (inactive) in [12], 18.4 µM (inactive) in [13] and 13.2 µM (inactive) in assay [14].

For `Cc1cc2c(=O)cc(-c3ccc(O)cc3)oc2c(C(=O)O)c1C`, the GI50 in assay [1] was > 100 µM (inactive); in [2] it was > 100 µM (inactive); in assay [15] it was above 100 µM; in assay [3], > 100 µM (inactive); in assay [4], > 100 µM (inactive); in [5], > 100 µM (inactive). Besides, the GI50 in assay [6], in assay [7], in assay [8], in [9], in assay [16] and in assay [17] was > 100 µM (inactive) in each case. Besides, the GI50 in assay [11], in [12], in assay [13] and in assay [14] was > 100 µM (inactive) in each case.

For the compound `CCCCC(C(=O)C(=O)Nc1ccccc1CC)C(=O)C(C)C` (stereo unspecified), the GI50 in [1] was > 100 µM (inactive); in assay [2] it was > 100 µM (inactive); in assay [15], above 100 µM; in assay [3], > 100 µM (inactive); in assay [4], > 100 µM (inactive); in assay [5] it was > 100 µM (inactive). Also, the GI50 in assay [6], in assay [7], in [8], in assay [9], in assay [16] and in [17] was > 100 µM (inactive) in each case. The GI50 in [11], in assay [13] and in assay [14] was > 100 µM (inactive) in each case.

On to `C=CCSc1ncnc2c1ncn2C1OC(CO)C(O)C1O` (stereo unspecified), for which the GI50 is 24.3 µM (inactive) in assay [1]; 20.5 µM (inactive) in assay [2]; 7.94 µM in assay [15]; 36 µM (inactive) in assay [3]; > 100 µM (inactive) in assay [4]; > 100 µM (inactive) in [5]. For the same compound, the GI50 is 3.58 µM (inactive) in assay [6]; 18.2 µM (inactive) in assay [7]; 11.9 µM (inactive) in [8]; 11.4 µM (inactive) in assay [9]; > 100 µM (inactive) in assay [16]; > 100 µM (inactive) in assay [17]. Further, the GI50 in [11] was 30.5 µM (inactive); in assay [12], 65.2 µM (inactive); in [13], > 100 µM (inactive); in [14], > 100 µM (inactive).

For the compound `Cc1ccc(-c2cc(-c3ccco3)nc(N)n2)o1`, the GI50 was > 100 µM (inactive) in [2]; above 100 µM in assay [15]; > 100 µM (inactive) in [3]; > 100 µM (inactive) in assay [4]; > 100 µM (inactive) in [5]; > 100 µM (inactive) in assay [6]. Moreover, the GI50 in assay [7], in assay [8], in [9], in assay [16], in [10] and in assay [17] was > 100 µM (inactive) in each case. In [12], the GI50 is 37.2 µM (inactive).

Turning to `O=C1C2=C(c3ccccc31)C(c1ccccc1Cl)N1C(=O)CCSC1=N2` (stereo unspecified), the GI50 is > 100 µM (inactive) in assay [1]; > 100 µM (inactive) in assay [2]; above 100 µM in assay [15]; > 100 µM (inactive) in assay [3]; > 100 µM (inactive) in [4]; > 100 µM (inactive) in assay [5]. For the same compound, the GI50 in [6] was 84.7 µM (inactive); in assay [7], 76 µM (inactive); in assay [8], 35.7 µM (inactive); in [9] it was > 100 µM (inactive); in [16] it was 45.4 µM (inactive); in [17], > 100 µM (inactive). The GI50 in assay [11] is > 100 µM (inactive); in [12], 55.2 µM (inactive); in assay [13], > 100 µM (inactive); in [14], > 100 µM (inactive).

As to `COc1cc(OC)c2c(=O)c3cccc([N+](=O)[O-])c3n(C)c2c1`, the GI50 in assay [15] was above 100 µM; in assay [3], 31.3 µM (inactive); in [4] it was 61.4 µM (inactive); in assay [5] it was > 100 µM (inactive); in assay [6], 47 µM (inactive); in [7], 77.8 µM (inactive). Also, the GI50 was 52.4 µM (inactive) in assay [8]; > 100 µM (inactive) in [16]; > 100 µM (inactive) in [10]; > 100 µM (inactive) in assay [17]; > 100 µM (inactive) in assay [11]; > 100 µM (inactive) in [12]. For the same compound, the GI50 in assay [13] was > 100 µM (inactive); in assay [14], 87.9 µM (inactive).

For `CCOC(=O)C/N=c1\nc(SC)sc2c(C(=O)OCC)nc(Sc3ccccc3)n12`, the GI50 in assay [1] is 40.1 µM (inactive); in [2] it was 32.1 µM (inactive); in [3], > 100 µM (inactive); in [4] it was 83.2 µM (inactive); in [5] it was > 100 µM (inactive); in assay [8] it was 7.18 µM (inactive). The GI50 in assay [9] is 30.3 µM (inactive); in assay [16] it was 41.2 µM (inactive); in assay [17], > 100 µM (inactive); in assay [11] it was > 100 µM (inactive); in assay [14], 28.6 µM (inactive).

With `CC1=C(C)C(=O)c2c(cc3c4ccccc4ccn23)C1=O`, the GI50 in assay [2] was > 10 µM (inactive); in [15], above 100 µM; in [4], > 100 µM (inactive); in assay [5], > 100 µM (inactive); in assay [6], > 100 µM (inactive); in assay [7], > 100 µM (inactive). Further, the GI50 in assay [8], in assay [9], in assay [10], in [17], in assay [11] and in assay [12] was > 100 µM (inactive) each time. Besides, the GI50 in [13] and in assay [14] was > 100 µM (inactive) throughout.

As for `CC/C(=C(\c1ccccc1)c1ccc(OCC[N+](C)(C)C)cc1)c1ccccc1` [TAMOXIFEN METHYL IODIDE], the GI50 in assay [1] is 17.1 µM (inactive); in [2], 17.5 µM (inactive); in [15] it was 17.7 µM; in [3], 2.52 µM (inactive); in [4], 8.81 µM (inactive); in [5], 13.3 µM (inactive). For the same compound, the GI50 in [6] is 17.7 µM (inactive); in assay [8], 4.99 µM (inactive); in assay [9], 4.76 µM (inactive); in [16], 13 µM (inactive); in assay [10], 17.1 µM (inactive); in assay [17] it was 4.59 µM (inactive). The GI50 in [11] was 17.5 µM (inactive); in [12], 8.85 µM (inactive); in [13] it was 13.4 µM (inactive); in [14], 6.75 µM (inactive).

Consider `Cc1c(C(=O)/C=C/C=C/c2ccccc2)[n+]([O-])c2ccccc2[n+]1[O-]`, for which the GI50 in [1] was 18.9 µM (inactive); in [15] it was 15.2 µM; in [3] it was 26.1 µM (inactive); in assay [4], 26.3 µM (inactive); in assay [5] it was 16.8 µM (inactive); in assay [6], 40.5 µM (inactive). Besides, the GI50 was 17.5 µM (inactive) in assay [7]; 15 µM (inactive) in assay [8]; 26.1 µM (inactive) in assay [9]; 31.2 µM (inactive) in assay [16]; 19.9 µM (inactive) in assay [17]; 40.5 µM (inactive) in [11]. The figures for the GI50 in assay [12], in assay [13] and in [14] were 34.2 µM (inactive), 33.7 µM (inactive) and 28.2 µM (inactive), respectively.

As to `Nc1nc2c3nc(Nc4ccccc4)sc3nc(=S)n2c2sc(Nc3ccccc3)nc12`, the GI50 was 22.2 µM (inactive) in assay [1]; > 100 µM (inactive) in assay [2]; above 100 µM in assay [15]; > 100 µM (inactive) in [3]; > 100 µM (inactive) in assay [4]; > 100 µM (inactive) in [7]. In addition, the GI50 in [8] was 8.34 µM (inactive); in assay [16] it was > 100 µM (inactive); in assay [10], > 100 µM (inactive); in [17], > 100 µM (inactive); in [11] it was > 100 µM (inactive); in assay [12] it was 50.8 µM (inactive). For the same compound, the results for the GI50 in assay [13] and in assay [14] were 15.5 µM (inactive) and > 100 µM (inactive), respectively.

On to `C=C(CN(CC(=C)C(=O)c1ccccc1)C(C)(C)C)C(=O)c1ccccc1`, for which the GI50 in [1] was 19 µM (inactive); in [2] it was 13.8 µM (inactive); in assay [3], 2.53 µM (inactive); in assay [4], 20.5 µM (inactive); in assay [5], 13 µM (inactive); in assay [6], 2.49 µM (inactive). Also, the GI50 in [7] is 16.4 µM (inactive); in [8] it was 2.86 µM (inactive); in assay [9], 13.8 µM (inactive); in [16] it was 11.6 µM (inactive); in assay [10], 5.36 µM (inactive); in assay [17], 16.8 µM (inactive). In addition, the GI50 in [11] was 18.4 µM (inactive); in assay [12] it was 12.8 µM (inactive); in assay [13], 20.5 µM (inactive); in assay [14], 17 µM (inactive).
